Measurements: ChEMBL document CHEMBL1157496, “Design, synthesis, and evaluation of a novel 4-aminomethyl-4-fluoropiperidine as a T-type Ca2+ channel antagonist” (J Med Chem, 2008)
Each block holds one compound with its values, some of them ahead of it.

What was measured:
[1] = target: Voltage-dependent T-type calcium channel subunit alpha-1I (Homo sapiens) (UniProt Q9P0X4); assay: Antagonist activity at T type calcium channel Cav3.3 alpha1i at -60 mV by FLIPR assay; type: functional
[2] = target: Voltage-dependent T-type calcium channel subunit alpha-1I (Homo sapiens) (UniProt Q9P0X4); assay: Antagonist activity at T type calcium channel Cav3.3 alpha1i at -20 mV by FLIPR assay; type: functional
[3] = Binding affinity to L type calcium channel by binding assay
[4] = target: Voltage-gated inwardly rectifying potassium channel KCNH2 (Homo sapiens, UniProt Q12809)
Rattus norvegicus [5] = species on record: Rattus norvegicus; assay: Decrease in seizure time in Wistar albino Glaxo rat model of absence epilepsy after 4 hrs; type: functional
[6] = Oral bioavailability in rat at 10 mg/kg; type: ADME, organism-based; conditions: in vivo
[7] = AUC (0 to 24 hrs) in dog at 1 mg/kg, po; type: ADME, organism-based, Canis lupus familiaris; set-up: time < 24 hr, dose 1 mg/kg, route oral; conditions: plasma
Canis familiaris [8] = assay: Toxicity in dog assessed as effect on blood pressure at 20 mg/kg, po after 3 hrs; type: organism-based, Canis lupus familiaris; set-up: dose 20 mg/kg, route oral; conditions: in vivo
Canis familiaris [9] = assay: Toxicity in dog assessed as effect on plasma electrolytes at 20 mg/kg, po after 3 hrs; type: organism-based, Canis lupus familiaris; set-up: dose 20 mg/kg, route oral; conditions: in vivo
[10] = Antagonist activity at T type calcium channel at -80 mV by voltage-clamp electrophysiology assay; type: functional
[11] = AUC (0 to 4 hrs) in Wistar albino Glaxo rat model of absence epilepsy at 1 mg/kg; type: ADME, organism-based; set-up: time < 4 hr, dose 1 mg/kg; conditions: in vivo
[12] = Drug level in dog plasma at 4.30 mg/kg, iv measured at end of 60 mins infusion; type: ADME, organism-based, Canis lupus familiaris; set-up: dose 4.3 mg/kg, route intravenous; conditions: 4.3 mg/kg, read-out: Drug uptake
Canis familiaris [13] = assay: Toxicity in dog assessed as increase in heart rate at 20 mg/kg, po after 3 hrs; type: organism-based, Canis lupus familiaris; set-up: dose 20 mg/kg, route oral; conditions: in vivo
[14] = AUC (0 to 24 hrs) in monkey at 2 mg/kg, po; type: ADME, organism-based, Macaca mulatta; set-up: time < 24 hr, dose 2 mg/kg, route oral; conditions: rhesus monkey, plasma
[15] = target: Voltage-dependent T-type calcium channel subunit alpha-1H (Homo sapiens) (UniProt O95180); assay: Antagonist activity at T type calcium channel Cav3.2 alpha-1H at -100 mV by voltage-clamp electrophysiology assay; type: functional
[16] = Clearance in monkey at 0.5 mg/kg, iv; type: ADME, organism-based, Macaca mulatta; set-up: dose 0.5 mg/kg, route intravenous; conditions: rhesus monkey, in vivo
[17] = Clearance in rat at 1 mg/kg, iv; type: ADME, organism-based; set-up: dose 1 mg/kg, route intravenous; conditions: in vivo
[18] = Oral bioavailability in dog at 1 mg/kg; type: ADME, organism-based, Canis lupus familiaris; conditions: in vivo
[19] = Cmax in monkey at 2 mg/kg, po; type: ADME, organism-based, Macaca mulatta; set-up: dose 2 mg/kg, route oral; conditions: rhesus monkey, in vivo
Canis familiaris [20] = assay: Toxicity in dog assessed as effect on urine flow at 20 mg/kg, po after 3 hrs; type: organism-based, Canis lupus familiaris; set-up: dose 20 mg/kg, route oral; conditions: in vivo
[21] = target: Voltage-dependent T-type calcium channel subunit alpha-1G (Homo sapiens) (UniProt O43497); assay: Antagonist activity at T type calcium channel Cav3.1 alpha-1G at -100 mV by voltage-clamp electrophysiology assay; type: functional
[22] = Protein binding in rat plasma; type: ADME, cell-free; conditions: read-out: PPB (converted)
Canis familiaris [23] = assay: Toxicity in dog assessed as effect on urinary excretion of sodium and potassium at 20 mg/kg, po after 3 hrs; type: organism-based, Canis lupus familiaris, Urine; set-up: dose 20 mg/kg, route oral; conditions: in vivo
Canis familiaris [24] = assay: Toxicity in dog assessed as effect on glomerular filtration at 20 mg/kg, po after 3 hrs; type: organism-based, Canis lupus familiaris; set-up: dose 20 mg/kg, route oral; conditions: in vivo
[25] = Cmax in Wistar albino Glaxo rat model of absence epilepsy at 3 mg/kg; type: ADME, organism-based; set-up: dose 3 mg/kg; conditions: in vivo
[26] = Cmax in rat at 10 mg/kg, po; type: ADME, organism-based; set-up: dose 10 mg/kg, route oral; conditions: in vivo
[27] = Volume of distribution at steady state in dog at 0.5 mg/kg, iv; type: ADME, organism-based, Canis lupus familiaris; set-up: dose 0.5 mg/kg, route intravenous; conditions: in vivo, read-out: Vdss
[28] = Cmax in dog at 1 mg/kg, po; type: ADME, organism-based, Canis lupus familiaris; set-up: dose 1 mg/kg, route oral; conditions: in vivo
[29] = Ratio of drug level in brain to plasma in rat after 9 hrs; type: ADME, cell-free
[30] = Protein binding in dog plasma; type: ADME, cell-free, Canis lupus familiaris; conditions: read-out: PPB
[31] = Antagonist activity at sigma receptor in guinea pig vas deferens at 30 uM; type: functional, Cavia porcellus; set-up: scale not given: the % may be the effect or the level left
[32] = Volume of distribution at steady state in rat at 1 mg/kg, iv; type: ADME, organism-based; set-up: dose 1 mg/kg, route intravenous; conditions: in vivo, read-out: Vdss
[33] = Tmax in monkey at 2 mg/kg, po; type: ADME, organism-based, Macaca mulatta; set-up: dose 2 mg/kg, route oral; conditions: rhesus monkey, in vivo
[34] = target: Voltage-dependent N-type calcium channel subunit alpha-1B (Homo sapiens) (UniProt Q00975); assay: Inhibition of calcium channel Cav2.2 at 10 uM by high throughput assay
Chain of Voltage-dependent N-type calcium channel subunit alpha-1B (Homo sapiens) (Q00975 whole entry, looked up): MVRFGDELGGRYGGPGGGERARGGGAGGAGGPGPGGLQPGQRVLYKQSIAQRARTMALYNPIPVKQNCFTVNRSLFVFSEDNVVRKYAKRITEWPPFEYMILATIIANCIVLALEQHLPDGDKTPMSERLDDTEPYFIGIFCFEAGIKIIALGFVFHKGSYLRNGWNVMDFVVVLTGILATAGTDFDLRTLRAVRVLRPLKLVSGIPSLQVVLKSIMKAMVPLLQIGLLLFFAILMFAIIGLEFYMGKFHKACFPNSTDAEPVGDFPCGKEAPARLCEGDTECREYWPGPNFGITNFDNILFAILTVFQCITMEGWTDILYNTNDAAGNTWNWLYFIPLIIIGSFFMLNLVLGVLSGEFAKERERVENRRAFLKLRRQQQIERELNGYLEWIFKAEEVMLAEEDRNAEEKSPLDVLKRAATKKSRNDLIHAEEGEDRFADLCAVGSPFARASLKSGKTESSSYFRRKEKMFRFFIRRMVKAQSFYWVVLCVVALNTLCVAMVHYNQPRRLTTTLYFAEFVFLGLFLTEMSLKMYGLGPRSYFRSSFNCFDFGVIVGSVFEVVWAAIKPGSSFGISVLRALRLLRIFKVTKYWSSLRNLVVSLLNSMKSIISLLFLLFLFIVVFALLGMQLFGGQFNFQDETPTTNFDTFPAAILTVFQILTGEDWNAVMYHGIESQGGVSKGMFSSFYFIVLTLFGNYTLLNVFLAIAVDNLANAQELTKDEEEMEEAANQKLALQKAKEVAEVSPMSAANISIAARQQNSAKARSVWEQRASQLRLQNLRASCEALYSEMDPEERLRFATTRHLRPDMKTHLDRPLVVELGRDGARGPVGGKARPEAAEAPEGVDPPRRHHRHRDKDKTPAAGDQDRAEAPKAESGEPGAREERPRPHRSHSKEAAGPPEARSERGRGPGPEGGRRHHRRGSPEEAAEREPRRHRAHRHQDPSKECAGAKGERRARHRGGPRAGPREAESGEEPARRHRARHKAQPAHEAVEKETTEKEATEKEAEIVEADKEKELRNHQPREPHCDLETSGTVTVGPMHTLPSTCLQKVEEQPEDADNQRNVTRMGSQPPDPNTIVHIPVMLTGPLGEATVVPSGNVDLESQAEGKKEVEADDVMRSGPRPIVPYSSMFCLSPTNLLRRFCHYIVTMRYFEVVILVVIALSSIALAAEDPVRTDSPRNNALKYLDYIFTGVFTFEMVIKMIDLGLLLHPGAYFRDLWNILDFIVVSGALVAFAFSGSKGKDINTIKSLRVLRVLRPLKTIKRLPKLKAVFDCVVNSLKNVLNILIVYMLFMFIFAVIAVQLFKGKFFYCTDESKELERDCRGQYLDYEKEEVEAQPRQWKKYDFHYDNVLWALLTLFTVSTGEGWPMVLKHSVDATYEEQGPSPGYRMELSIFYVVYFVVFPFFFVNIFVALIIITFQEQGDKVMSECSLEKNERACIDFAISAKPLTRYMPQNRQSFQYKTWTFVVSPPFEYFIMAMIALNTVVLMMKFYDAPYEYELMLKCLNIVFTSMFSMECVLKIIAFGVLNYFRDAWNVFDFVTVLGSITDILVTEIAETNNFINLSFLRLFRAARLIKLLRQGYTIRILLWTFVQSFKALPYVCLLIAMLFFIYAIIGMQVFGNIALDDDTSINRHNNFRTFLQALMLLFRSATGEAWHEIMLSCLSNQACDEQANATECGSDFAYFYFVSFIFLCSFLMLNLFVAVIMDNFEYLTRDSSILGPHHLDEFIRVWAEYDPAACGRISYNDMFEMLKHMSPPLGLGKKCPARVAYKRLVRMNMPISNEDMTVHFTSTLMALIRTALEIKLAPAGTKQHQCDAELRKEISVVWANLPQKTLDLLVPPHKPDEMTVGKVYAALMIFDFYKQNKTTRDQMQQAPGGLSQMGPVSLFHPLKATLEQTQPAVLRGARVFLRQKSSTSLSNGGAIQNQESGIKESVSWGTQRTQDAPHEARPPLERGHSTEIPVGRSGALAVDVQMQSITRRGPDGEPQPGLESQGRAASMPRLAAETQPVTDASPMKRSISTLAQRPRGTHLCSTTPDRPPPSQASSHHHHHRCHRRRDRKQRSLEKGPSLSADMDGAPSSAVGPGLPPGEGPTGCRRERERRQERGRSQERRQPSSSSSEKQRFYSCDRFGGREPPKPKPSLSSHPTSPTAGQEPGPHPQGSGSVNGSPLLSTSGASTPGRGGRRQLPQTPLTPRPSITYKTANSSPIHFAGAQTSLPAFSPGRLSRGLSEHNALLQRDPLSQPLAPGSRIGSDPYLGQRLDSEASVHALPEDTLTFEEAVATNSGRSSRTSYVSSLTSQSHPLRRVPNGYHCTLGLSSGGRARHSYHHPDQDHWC

[35] = Half life in monkey at 0.5 mg/kg, iv; type: ADME, organism-based, Macaca mulatta; set-up: dose 0.5 mg/kg, route intravenous; conditions: rhesus monkey, in vivo
[36] = Half life in dog at 0.5 mg/kg, iv; type: ADME, organism-based, Canis lupus familiaris; set-up: dose 0.5 mg/kg, route intravenous; conditions: in vivo
Canis familiaris [37] = assay: Toxicity in dog assessed as effect on renal plasma flow at 20 mg/kg, po after 3 hrs; type: organism-based, Canis lupus familiaris; set-up: dose 20 mg/kg, route oral; conditions: in vivo
[38] = AUC (0 to 4 hrs) in Wistar albino Glaxo rat model of absence epilepsy at 10 mg/kg; type: ADME, organism-based; set-up: time < 4 hr, dose 10 mg/kg; conditions: in vivo
[39] = Tmax in rat at 10 mg/kg, po; type: ADME, organism-based; set-up: dose 10 mg/kg, route oral; conditions: in vivo
[40] = AUC (0 to 24 hrs) in rat at 10 mg/kg, po; type: ADME, organism-based; set-up: time < 24 hr, dose 10 mg/kg, route oral; conditions: plasma
[41] = Antagonist activity at T type calcium channel at -100 mV by voltage-clamp electrophysiology assay; type: functional
Rattus norvegicus [42] = species on record: Rattus norvegicus; assay: Decrease in tremor activity in harmaline-induced rat model; type: functional, organism-based
[43] = Ratio of drug level in cerebrospinal fluid to plasma in rat after 9 hrs; type: ADME, CSF/Plasma
[44] = target: Sodium channel protein type 5 subunit alpha (Homo sapiens, UniProt Q14524); assay: Inhibition of sodium channel Nav1.5 by voltage-clamp method
Canis familiaris [45] = assay: Drug level in dog plasma at 20 mg/kg, po; type: ADME, organism-based, Canis lupus familiaris; set-up: dose 20 mg/kg, route oral; conditions: in vivo, read-out: Drug uptake
[46] = Binding affinity to sigma receptor
[47] = Inhibition of sodium channel site 2 by binding assay
[48] = Protein binding in monkey plasma; type: ADME, cell-free, Macaca mulatta; conditions: rhesus monkey, read-out: PPB (converted)
[49] = Tmax in dog at 1 mg/kg, po; type: ADME, organism-based, Canis lupus familiaris; set-up: dose 1 mg/kg, route oral; conditions: in vivo
Canis familiaris [50] = assay: Toxicity in dog assessed as effect on ECG intervals at 20 mg/kg, po after 3 hrs; type: organism-based, Canis lupus familiaris; set-up: dose 20 mg/kg, route oral; conditions: in vivo
[51] = AUC (0 to 4 hrs) in Wistar albino Glaxo rat model of absence epilepsy at 3 mg/kg; type: ADME, organism-based; set-up: time < 4 hr, dose 3 mg/kg; conditions: in vivo
[52] = Oral bioavailability in monkey at 2 mg/kg; type: ADME, organism-based, Macaca mulatta; conditions: rhesus monkey, in vivo
[53] = Cmax in Wistar albino Glaxo rat model of absence epilepsy at 10 mg/kg; type: ADME, organism-based; set-up: dose 10 mg/kg; conditions: in vivo
[54] = Volume of distribution at steady state in monkey at 0.5 mg/kg, iv; type: ADME, organism-based, Macaca mulatta; set-up: dose 0.5 mg/kg, route intravenous; conditions: rhesus monkey, in vivo, read-out: Vdss
[55] = Clearance in dog at 0.5 mg/kg, iv; type: ADME, organism-based, Canis lupus familiaris; set-up: dose 0.5 mg/kg, route intravenous; conditions: in vivo
[56] = Drug level in dog plasma at 1.29 mg/kg, iv measured at end of 60 mins infusion; type: ADME, organism-based, Canis lupus familiaris; set-up: dose 1.29 mg/kg, route intravenous; conditions: read-out: Drug uptake
[57] = Cmax in Wistar albino Glaxo rat model of absence epilepsy at 1 mg/kg; type: ADME, organism-based; set-up: dose 1 mg/kg; conditions: in vivo
[58] = Half life in rat at 1 mg/kg, iv; type: ADME, organism-based; set-up: dose 1 mg/kg, route intravenous; conditions: in vivo

Chain of Voltage-dependent T-type calcium channel subunit alpha-1I (Homo sapiens) (Q9P0X4 whole entry): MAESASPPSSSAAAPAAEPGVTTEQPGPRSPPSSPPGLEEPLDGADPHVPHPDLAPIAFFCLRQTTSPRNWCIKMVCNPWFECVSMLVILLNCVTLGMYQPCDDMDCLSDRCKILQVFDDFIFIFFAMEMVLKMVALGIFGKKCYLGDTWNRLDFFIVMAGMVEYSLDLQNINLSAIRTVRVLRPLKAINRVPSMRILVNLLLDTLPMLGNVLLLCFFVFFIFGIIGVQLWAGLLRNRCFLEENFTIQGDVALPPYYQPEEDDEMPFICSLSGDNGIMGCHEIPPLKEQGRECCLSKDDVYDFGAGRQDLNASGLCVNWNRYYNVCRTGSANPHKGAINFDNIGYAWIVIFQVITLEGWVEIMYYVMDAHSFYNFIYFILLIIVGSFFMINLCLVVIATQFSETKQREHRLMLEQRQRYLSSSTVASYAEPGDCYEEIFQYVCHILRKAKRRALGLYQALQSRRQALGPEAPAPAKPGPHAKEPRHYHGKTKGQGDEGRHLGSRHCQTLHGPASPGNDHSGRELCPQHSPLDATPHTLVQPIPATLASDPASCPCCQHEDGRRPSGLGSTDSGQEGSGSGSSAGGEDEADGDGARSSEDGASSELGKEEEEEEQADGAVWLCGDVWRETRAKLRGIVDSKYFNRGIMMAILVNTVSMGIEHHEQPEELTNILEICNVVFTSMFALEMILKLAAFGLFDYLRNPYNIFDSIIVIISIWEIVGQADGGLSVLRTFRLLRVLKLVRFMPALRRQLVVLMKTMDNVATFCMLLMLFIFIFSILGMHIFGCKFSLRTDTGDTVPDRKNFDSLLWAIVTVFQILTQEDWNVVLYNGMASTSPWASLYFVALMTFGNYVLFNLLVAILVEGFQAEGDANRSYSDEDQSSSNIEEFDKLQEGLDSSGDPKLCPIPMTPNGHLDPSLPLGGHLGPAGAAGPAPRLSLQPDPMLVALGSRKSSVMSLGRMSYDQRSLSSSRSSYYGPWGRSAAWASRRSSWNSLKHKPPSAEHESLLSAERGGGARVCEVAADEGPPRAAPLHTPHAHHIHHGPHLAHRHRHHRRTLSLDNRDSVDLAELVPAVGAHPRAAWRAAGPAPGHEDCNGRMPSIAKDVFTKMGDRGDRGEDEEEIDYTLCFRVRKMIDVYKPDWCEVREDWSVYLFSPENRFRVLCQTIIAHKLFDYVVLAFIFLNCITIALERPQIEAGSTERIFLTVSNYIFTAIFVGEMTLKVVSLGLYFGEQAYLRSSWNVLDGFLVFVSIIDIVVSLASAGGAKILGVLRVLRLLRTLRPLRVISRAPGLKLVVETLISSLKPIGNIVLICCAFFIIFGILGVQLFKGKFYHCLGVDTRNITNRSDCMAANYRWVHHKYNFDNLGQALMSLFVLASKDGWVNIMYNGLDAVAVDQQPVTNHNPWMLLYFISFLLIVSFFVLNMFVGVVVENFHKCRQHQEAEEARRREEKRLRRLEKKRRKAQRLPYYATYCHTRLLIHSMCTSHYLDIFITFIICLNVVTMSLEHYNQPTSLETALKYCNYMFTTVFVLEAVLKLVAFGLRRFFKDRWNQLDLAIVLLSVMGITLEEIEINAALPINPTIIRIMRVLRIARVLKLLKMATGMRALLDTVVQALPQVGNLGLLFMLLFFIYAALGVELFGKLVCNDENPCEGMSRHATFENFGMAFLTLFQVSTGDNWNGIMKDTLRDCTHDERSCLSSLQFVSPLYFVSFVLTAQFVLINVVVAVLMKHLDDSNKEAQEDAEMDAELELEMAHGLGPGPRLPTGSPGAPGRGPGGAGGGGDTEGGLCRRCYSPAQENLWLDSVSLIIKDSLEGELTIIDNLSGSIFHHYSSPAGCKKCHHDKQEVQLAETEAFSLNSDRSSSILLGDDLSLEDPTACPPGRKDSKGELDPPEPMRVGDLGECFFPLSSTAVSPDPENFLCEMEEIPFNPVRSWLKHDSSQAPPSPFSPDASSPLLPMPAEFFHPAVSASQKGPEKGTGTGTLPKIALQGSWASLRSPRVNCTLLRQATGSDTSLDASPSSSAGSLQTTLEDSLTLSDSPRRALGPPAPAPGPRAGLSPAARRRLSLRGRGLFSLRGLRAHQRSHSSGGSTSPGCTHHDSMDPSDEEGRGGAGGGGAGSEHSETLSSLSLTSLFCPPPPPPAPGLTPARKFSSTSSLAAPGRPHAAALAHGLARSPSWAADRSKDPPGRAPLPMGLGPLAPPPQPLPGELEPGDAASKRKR

- Activity [1]: 98 nM
SMILES: CC(C)(C)CCN1CCC(CNC(=O)c2cc(Cl)cc(Cl)c2)CC1

- Activity [2]: 145 nM
- Activity [1]: 333 nM
SMILES: CC1(C)CC(CN2CCC(F)(CNC(=O)c3cc(Cl)cc(Cl)c3)CC2)CCO1 (racemic)

- IC50 [3]: 0.94 µM
- Activity [2]: 66 nM
- Activity [1]: 64 nM
SMILES: CC(C)(C)CCN1CCC(F)(CNC(=O)c2cc(Cl)cc(Cl)c2)CC1
- IC50 [4]: 2.22 µM

- Activity [2]: 94 nM
- Activity [1]: 297 nM
SMILES: CC1(C)C[C@H](CN2CCC(F)(CNC(=O)c3cc(Cl)cc(Cl)c3)CC2)CCO1
- inhibition (INH) (Rattus norvegicus [5]): 63%

- bioavailability [6]: 36%
- AUC(0-t) at 24 h [7]: 15.8 µM·h
- AUC(0-t) at 4 h [11]: 0.15 µM·h
- concentration at 1 h [12]: 4600 nM
- AUC(0-t) at 24 h [14]: 3.2 µM·h
- Activity [15]: 196 nM
- clearance [16]: 13.6 mL/min/kg
- clearance [17]: 75 mL/min/kg
- bioavailability [18]: 87%
- Cmax [19]: 580 nM
- Activity [21]: 93 nM
- fraction unbound [22]: 0.057
- Cmax [25]: 190 nM
- Cmax [26]: 480 nM
- Vd [27]: 1 L/kg
- Cmax [28]: 2180 nM
- Kp at 9 h [29]: 6
- fraction unbound [30]: 0.01
- Vd [32]: 10 L/kg
- Tmax [33]: 1.5 h
- Activity [2]: 84 nM
- inhibition [34]: 18%
- half-life [35]: 3.3 h
- half-life [36]: 4.7 h
- AUC(0-t) at 4 h [38]: 2.96 µM·h
- Tmax [39]: 0.7 h
- AUC(0-t) at 24 h [40]: 1.94 µM·h
- Kp at 9 h [43]: 2.8
- concentration (Canis familiaris [45]): 34500 nM
- Ki [46]: < 0.1 µM
- IC50 [47]: 1.9 µM
- fraction unbound [48]: 0.025
- Tmax [49]: 3.1 h
- AUC(0-t) at 4 h [51]: 0.54 µM·h
- bioavailability [52]: 44%
- Cmax [53]: 1000 nM
- Vd [54]: 3.8 L/kg
- clearance [55]: 2.3 mL/min/kg
- concentration at 1 h [56]: 1500 nM
- Activity [1]: 181 nM
- Cmax [57]: 60 nM
- half-life [58]: 1.8 h
SMILES: CC1(C)C[C@@H](CN2CCC(F)(CNC(=O)c3cc(Cl)cc(Cl)c3)CC2)CCO1
- Activity (Canis familiaris [8]): Non-toxic
- Activity (Canis familiaris [9]): Non-toxic
- Activity [10]: 115 nM
- inhibition (INH) (Rattus norvegicus [5]): 81%
- Activity (Canis familiaris [13]): Toxic
- Activity (Canis familiaris [20]): Non-toxic
- Activity (Canis familiaris [23]): Non-toxic
- Activity (Canis familiaris [24]): Non-toxic
- Activity [31]: 30%
- Activity (Canis familiaris [37]): Non-toxic
- Activity [41]: 84 nM
- Activity (Rattus norvegicus [42]): Dose-dependent effect
- IC50 [44]: 84 µM
- Activity (Canis familiaris [50]): Non-toxic
